In patent US7279494B2, “Antimicrobial [3.1.0] bicyclohexylphenyl-oxazolidinone derivatives and analogues” (Pfizer Inc., priority 2003, dated 2007):
Values after ≈ are worked out from the molar mass of the structure shown.

Columns and labels:
S. aureus UC9213 = test: MIC by standard agar dilution, S. aureus UC9213; assay type: cell-based; details: incubated overnight at 35° C.; for MIC: Staphylococcus aureus, UC9213, Mueller Hinton agar
In short: (§1)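 Agar dilution MIC: 2-fold serial compound dilutions in Mueller Hinton agar, spot-inoculated with ~10^4–10^5 cells from 0.5 McFarland suspensions diluted 1:20 in TSB. Incubated overnight at 35 °C; MIC (μg/mL) taken as lowest concentration preventing visible growth.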

H. influenzae 30063 = test: MIC by standard agar dilution, H. influenzae 30063; assay type: cell-based; details: Mueller Hinton agar, incubated overnight at 35° C.; for MIC: Haemophilus influenzae, 30063, agar dilution, read-out: H. influenzae 30063 MIC
In short: as §1

S. pneumoniae UC9912 = test: MIC by standard agar dilution, S. pneumoniae UC9912; assay type: cell-based; details: incubated overnight at 35° C.; for MIC: Streptococcus pneumoniae, UC9912, Mueller Hinton agar
In short: as §1

## CC(=O)NC[C@H]1CN(c2ccc([C@H]3[C@@H]4CSC[C@@H]43)c(F)c2)C(=O)O1 [Example 1, N-[((5S)-3-{3-fluoro-4-[exo-(1R,5S)-3-thiabicyclo[3.1.0]hex-6-yl]phenyl}-2-oxo-1,3-oxazolidin-5-yl)methyl]acetamide]
S. aureus UC9213
  MIC: 4 µg/mL (≈ 11.4 µM)
H. influenzae 30063
  MIC: ≤ 32 µg/mL
S. pneumoniae UC9912
  MIC: 1 µg/mL (≈ 2.85 µM)
other
  melting point: 177 to 178 °C

## N#CCC(=O)NC[C@H]1CN(c2ccc([C@H]3[C@@H]4C[S+]([O-])C[C@@H]43)c(F)c2)C(=O)O1 (stereo partly drawn) [Example 68, 2-cyano-N-[((5S)-3-{3-fluoro-4-[exo-(1R,5S)-3-oxido-3-thiabicyclo[3.1.0]hex-6-yl]phenyl}-2-oxo-1,3-oxazolidin-5-yl)methyl]acetamide]
S. aureus UC9213
  MIC: 4 µg/mL (≈ 10.2 µM)
H. influenzae 30063
  MIC: 8 µg/mL (≈ 20.4 µM)
S. pneumoniae UC9912
  MIC: 1 µg/mL (≈ 2.55 µM)

## N#CCC(=O)NC[C@H]1CN(c2ccc([C@H]3[C@@H]4CS(=O)(=O)C[C@@H]43)c(F)c2)C(=O)O1 [Example 69, 2-cyano-N-[((5S)-3-{3-fluoro-4-[exo-(1R,5S)-3,3-dioxido-3-thiabicyclo[3.1.0]hex-6-yl]phenyl}-2-oxo-1,3-oxazolidin-5-yl)methyl]acetamide]
S. aureus UC9213
  MIC: 4 µg/mL (≈ 9.82 µM)
H. influenzae 30063
  MIC: 8 µg/mL (≈ 19.6 µM)
S. pneumoniae UC9912
  MIC: 4 µg/mL (≈ 9.82 µM)

## N#CCC(=O)NC[C@H]1CN(c2cc(F)c([C@H]3[C@@H]4C[S+]([O-])C[C@@H]43)c(F)c2)C(=O)O1 (stereo partly drawn) [Example 70, 2-cyano-N-[((5S)-3-{3,5-difluoro-4-[exo-(1R,5S)-3-oxido-3-thiabicyclo[3.1.0]hex-6-yl]phenyl}-2-oxo-1,3-oxazolidin-5-yl)methyl]acetamide]
S. aureus UC9213
  MIC: 2 µg/mL (≈ 4.89 µM)
H. influenzae 30063
  MIC: 4 µg/mL (≈ 9.77 µM)
S. pneumoniae UC9912
  MIC: 1 µg/mL (≈ 2.44 µM)

## N#CCC(=O)NC[C@H]1CN(c2cc(F)c([C@H]3[C@@H]4CS(=O)(=O)C[C@@H]43)c(F)c2)C(=O)O1 [Example 71, 2-cyano-N-[((5S)-3-{3,5-difluoro-4-[exo-(1R,5S)-3,3-dioxide-3-thiabicyclo[3.1.0]hex-6-yl]phenyl}-2-oxo-1,3-oxazolidin-5-yl)methyl]acetamide]
S. aureus UC9213
  MIC: 4 µg/mL (≈ 9.4 µM)
H. influenzae 30063
  MIC: 4 µg/mL (≈ 9.4 µM)
S. pneumoniae UC9912
  MIC: 2 µg/mL (≈ 4.7 µM)

## CC(=O)NC[C@H]1CN(c2ccc([C@H]3[C@@H]4CN(C(=N)N)C[C@@H]43)c(F)c2)C(=O)O1 [Example 72, N-{[(5S)-3-(4-{exo-(1R,5S)-3-[amino(imino)methyl]-3-azabicyclo[3.1.0]hex-6-yl}-3-fluorophenyl)-2-oxo-1,3-oxazolidin-5-yl]methyl}acetamide]
S. aureus UC9213
  MIC: 32 µg/mL (≈ 85.2 µM)
H. influenzae 30063
  MIC: 64 µg/mL (≈ 170 µM)
S. pneumoniae UC9912
  MIC: 8 µg/mL (≈ 21.3 µM)

## CN/C(=N\C#N)N1C[C@@H]2[C@H](C1)[C@H]2c1ccc(N2C[C@H](CNC(C)=O)OC2=O)cc1F [Example 73, exo-(1R,5S)-N′-cyano-6-(4-{(5S)-5-[(acetylamino)methyl]-2-oxo-1,3-oxazolidin-3-yl}-2-fluorophenyl)-N-methyl-3-azabicyclo[3.1.0]hexane-3-carboximidamide]
S. aureus UC9213
  MIC: 2 µg/mL (≈ 4.83 µM)
H. influenzae 30063
  MIC: 4 µg/mL (≈ 9.65 µM)
S. pneumoniae UC9912
  MIC: 1 µg/mL (≈ 2.41 µM)

## CC(=O)NC[C@H]1CN(c2ccc([C@H]3[C@@H]4CN(/C(N)=N/C#N)C[C@@H]43)c(F)c2)C(=O)O1 [Example 74, exo-(1R,5S)-N′-cyano-6-(4-{(5S)-5-[(acetylamino)methyl]-2-oxo-1,3-oxazolidin-3-yl}-2-fluorophenyl)-3-azabicyclo[3.1.0]hexane-3-carboximidamide]
S. aureus UC9213
  MIC: 1 µg/mL (≈ 2.5 µM)
H. influenzae 30063
  MIC: 4 µg/mL (≈ 9.99 µM)
S. pneumoniae UC9912
  MIC: 1 µg/mL (≈ 2.5 µM)

## CN/C(=C\[N+](=O)[O-])N1C[C@@H]2[C@H](C1)[C@H]2c1ccc(N2C[C@H](CNC(C)=O)OC2=O)cc1F [Example 75, N-[((5S)-3-{3-fluoro-4-[exo-(1R,5S)-3-((E)-1-{methylamino}-2-nitrovinyl)-3-azabicyclo[3.1.0]hex-6-yl]phenyl}-2-oxo-1,3-oxazolidin-5-yl)methyl]acetamide]
S. aureus UC9213
  MIC: 2 µg/mL (≈ 4.61 µM)
H. influenzae 30063
  MIC: 4 µg/mL (≈ 9.23 µM)
S. pneumoniae UC9912
  MIC: 2 µg/mL (≈ 4.61 µM)

## CC(=O)NC[C@H]1CN(c2ccc(N3CCOCC3)c(F)c2)C(=O)O1 [linezolid, reference compound]
S. aureus UC9213
  MIC: 4 µg/mL (≈ 11.9 µM)
H. influenzae 30063
  MIC: 16 µg/mL (≈ 47.4 µM)
S. pneumoniae UC9912
  MIC: 1 µg/mL (≈ 2.96 µM)

## N-[((5S)-3-{3-fluoro-4-[exo-(1R,5S)-3-(1-methyl-1H-tetrazol-5-yl)-3-azabicyclo[3.1.0]hex-6-yl]phenyl}-2-oxo-1,3-oxazolidin-5-yl)methyl]acetamide [Example 45]
S. aureus UC9213; Mueller Hinton agar
  S. aureus UC9213 MIC: 4 µg/mL
H. influenzae 30063; agar dilution
  H. influenzae 30063 MIC: 16 µg/mL
S. pneumoniae UC9912; Mueller Hinton agar
  S. pneumoniae UC9912 MIC: 4 µg/mL
